Converted amounts (≈) assume the structure as drawn. Read-outs that look alike come from different tables or passages of the source. One block for each molecule: values may come before it.
What was measured:
[1] = test system: human HeLa cells; experiment: Mammalian cytotoxicity, HeLa cells, 72 hr, MTS; format: cell-based
Protocol: (§1) Cytotoxicity of the inhibitor compounds was quantified using human HeLa cells (CLL-2; American Type Culture Collection, Manassas, VA) seeded at 4000 cells/well in 96-well plates. Cultures were incubated with individual inhibitor compounds for 72 hr at 37° C. in minimal essential medium (Invitrogen) supplemented with 10% fetal calf serum.

[2] = Mammalian cytotoxicity, HeLa cells, 72 hr, MTS; format: cell-based, human; settings: human, HeLa cells; for CC50 at 72 h: 3 days
Protocol: as §1

[3] = molecular target: CYP3A4 (Homo sapiens, UniProt P08684); experiment: Cytochrome P450 inhibition, fluorogenic substrate assay; format: in vitro ADME
CYP3A4, sequence (P08684 whole entry, species assumed): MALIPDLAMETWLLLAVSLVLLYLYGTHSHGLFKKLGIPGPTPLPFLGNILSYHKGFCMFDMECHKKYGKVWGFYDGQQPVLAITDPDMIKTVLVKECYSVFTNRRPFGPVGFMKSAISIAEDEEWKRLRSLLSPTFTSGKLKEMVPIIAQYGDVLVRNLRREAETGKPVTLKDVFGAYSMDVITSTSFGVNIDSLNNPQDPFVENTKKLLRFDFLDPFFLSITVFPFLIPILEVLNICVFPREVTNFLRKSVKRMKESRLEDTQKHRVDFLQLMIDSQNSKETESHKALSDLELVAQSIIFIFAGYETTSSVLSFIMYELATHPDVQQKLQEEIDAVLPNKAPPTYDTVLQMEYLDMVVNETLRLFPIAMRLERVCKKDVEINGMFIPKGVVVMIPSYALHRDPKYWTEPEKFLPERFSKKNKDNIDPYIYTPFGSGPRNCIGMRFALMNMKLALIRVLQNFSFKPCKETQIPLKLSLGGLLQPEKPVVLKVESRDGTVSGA
Excerpt: To measure Cytochrome P450 inhibition, a fluorogenic substrate assay was used to measure inhibitor compound interference with enzymes that metabolize drugs in vivo (Houston, J., Biochem. Pharmacol., 47:1469-1479 (1994)).

[4] = Protein binding in mouse serum by equilibrium dialysis; format: in vitro ADME
[5] = Solubility by nephelometric method; format: physicochemical
Protocol: The solubility of the inhibitor compounds was determined by the nephelometric method (Bevan, C., and R. Lloyd, supra (2000)). A high-throughput screening method for the determination of aqueous drug solubility using laser nephelometry in microtiter plates. The compounds were serially diluted in DMSO and then added to water. […] Additionally, to confirm the nephelometry results, compounds were stirred with a test vehicle (deionized water, PBS, or D5W) at 20° C. for 4 hours. Additional compound was added if complete dissolution was obtained. The mixture was then filtered and the filtrate assayed by HPLC to quantify the amount of compound in solution (Solubility).

[6] = Microsome stability (MLMS); format: in vitro ADME, mouse; settings: murine liver microsomes; for MLMS % consumed: after 30 min.
Protocol: The microsome and serum stability assays measure the stability of the inhibitor compounds when exposed to the liver and to serum in vivo. For microsomal stability measurements, inhibitor compounds were incubated with mouse microsomal proteins in buffer with NADPH (Bevan, C. and R. Lloyd, Anal. Chem., 72:1781-1787 (2000)) and the resulting samples were analyzed by LC/MS to quantitate the remaining parent. The data are calculated as percent of parent remaining.

[7] = Caco-2 permeability; format: in vitro ADME; settings: human, Caco-2; read-out: Papp, Caco-2 cell monolayer
Protocol: (§2) The Caco-2 assay is an indicator of the potential oral bioavailability of the inhibitor compound. Caco-2 cells were applied to wells of a collagen-coated BioCoat Cell Environment (BD Biosciences) plate as described (Duraisingh, M., and A. Cowman, Acta Trop., 94:181-190 (2005)). The test agent was added to the apical (A) side and the amount of permeation was determined on the basolateral (B) side by LC/MS/MS analysis. The amount of material on the A and B sides were used to calculate a Papp value (Caco-2 Papp).

[8] = test system: P. falciparum; experiment: In vitro parasite growth inhibition in PGIM (SYBR Green I); format: cell-based
Protocol: P. falciparum laboratory lines were propagated at the asexual stage with standard methods, in RPMI 1640 medium supplemented with 25 mM HEPES, 31 mM NaHCO3, 0.37 mM hypoxanthine, 10 μg/ml gentamicin, and 10% pooled human serum. Nutrient deprivation experiments utilized standard PSAC Growth Inhibition Medium (PGIM) but with reduced concentrations of individual ingredients. Human serum was exhaustively dialyzed against distilled water before addition to those media. The PGIM contained reduced concentrations of isoleucine (11.4 μM), glutamine (102 μM), and hypoxanthine (3.01 μM) and was supplemented with the dialyzed human serum. Growth inhibition experiments (Burrows et al., Parasitology, 141:128-139 (2013)) were quantified by using a SYBR Green I-based fluorescence assay for parasite nucleic acid in 96-well microplates, as described previously (Dondorp et al., supra (2009)). Ring-stage synchronized cultures were seeded at 1% parasitemia and 2% hematocrit levels in standard medium or PGIM and were maintained for 72 hr at 37° C. in 5% O2/5% CO2 in nitrogen, without medium changes. Cultures were then lysed in 20 mM Tris, 10 mM EDTA, 0.016% saponin, 1.6% Triton X-100, pH 7.5, with SYBR Green I nucleic acid gel stain (Invitrogen, Carlsbad, CA) at 5000-fold dilution.
After a […] incubation, parasite DNA contents were quantified through fluorescence measurements (excitation, 485 nm; emission, 528 nm). Results were presented as IC50 values, defined as the concentration of inhibitor which decreases P. falciparum (Pf) DNA content by 50% (IC50 PGIM).

[9] = test system: PSAC; experiment: Transport inhibition assay: PSAC block by osmotic lysis of infected cells in sorbitol (transmittance); format: cell-based, P. falciparum; settings: for PSAC K0.5: Table 6
Protocol: Transport experiments were conducted to examine the affinity of the inhibitor compounds for PSAC. Inhibitor affinity for blocking PSAC was determined using a quantitative transmittance assay which is based on the osmotic lysis of infected cells with sorbitol (Desai, S., and A. Pillai, U.S. Pat. No. 8,618,090, supra (2013); Dondorp et al., supra (2009); Hooft van Huijsduijnen, R., and T. N. Wells, supra (2018)). Malaria parasite cultures were enriched at the trophozoite stage via the Percoll-sorbitol method (Pillai et al., Mol. Pharmacol., 82:1104-1114 (2012); Pillai et al., Mol. Pharmacol., 77:724-733 (2010); Wagner et al., Biophys. J., 84:116-123 (2003)), washed, and resuspended at 37° C. and 0.15% hematocrit in 280 mM sorbitol, 20 mM Na-HEPES, 0.1 mg/ml bovine serum albumin, pH 7.4, with the indicated concentrations of inhibitor compounds. Osmotic lysis, resulting from PSAC-mediated sorbitol uptake, was continuously tracked with transmittance measurements through the cell suspension (700-nm wavelength, DU640 spectrophotometer with Peltier temperature control; Beckman Coulter, Fullerton, CA).
Inhibitor dose-response relationships (K0.5 values) were calculated from the times required to reach a fractional lysis threshold. K0.5 estimates obtained with the osmotic lysis assay match those obtained using cell-attached and whole-cell patch-clamp assays (Alkhalil et al., Blood, 104:4279-4286 (2004); Dondorp et al., N. Engl. J. Med., 361:455-467 (2009)), confirming a quantitatively robust and valid assay.

[10] = Serum stability (MSS); format: in vitro ADME; settings: mouse serum exposure; for MSS % consumed: after 60 minutes
Excerpt: The microsome and serum stability assays measure the stability of the inhibitor compounds when exposed to the liver and to serum in vivo. For serum stability, inhibitor compounds were exposed to 55% mouse serum and the resulting samples analyzed by LC/MS to quantitate the remaining parent. […]

[11] = mouse, in vivo
Protocol: (§3) Tolerability. […] Pharmacokinetics (PK). […] PK parameters were calculated using the WinNonLin program. Efficacy.

[12] = test system: P. falciparum Pf3D70087/N9; experiment: Murine efficacy, humanized NSG mouse model infected with P. falciparum; format: in vivo
Protocol: as §3
In a second study, NSG mice were treated with either 25 mg/kg or 50 mg/kg of MBX 4055 either once or twice daily for 4 days by the oral route. […] Percent parasitemia was measured daily for 5 days as were the plasma levels of MBX 3318 and 4055.
Humanized NSG mice infected with P. falciparum were treated with 100 mg/kg of MBX 3318 twice daily for 4 days by the PO route. Control mice were treated with vehicle alone (10% DMSO, 80% PEG400, 1% Polysorbate 80). […] During the assay, blood samples were taken from mice treated with MBX 3318 to measure the levels of compound (FIG. 2B).
The murine model was also employed against MBX 4055. Humanized NSG mice infected with P. falciparum were treated with 25 or 50 mg/kg of MBX 4055 twice daily or 50 mg/kg once daily, for 4 days by the PO route. […] Unfortunately, the remaining mice that were dosed twice daily, including the vehicle-only mouse died within 2-5 days due to the apparent toxicity of the Labrasol-containing vehicle. During the assay, blood samples were taken from mice treated with MBX 4055 to measure the levels of compound (FIG. 3B).

[13] = test system: Caco-2 cells; experiment: Caco-2 permeability; format: in vitro ADME; settings: apical to basolateral
Protocol: as §2

[14] = test system: CD-1 mice; experiment: Murine tolerability; settings: not dose-related, considered formulation-related
Protocol: Tolerability. The test compounds were dissolved at concentrations of 1 to 10 mg/mL in various formulations (5% DMSO, 5% cremophor, 80% PEG-300 or 10% DMSO, 80% PEG-400, 1% Polysorbate 80). Male CD-1 mice were dosed with 4 dose levels of each test compound (vehicle control plus 3 dose levels ranging from 10-200 mg/kg as described in Table 8) of test compound by the intravenous (IV), intraperitoneal (IP) or oral (PO) route. Clinical observations described in Table 8 were made at various time points out to 24 hours after which mice were humanely euthanized.
Animals were monitored for 24 hours for signs of toxicity.

[15] = mouse serum, equilibrium dialysis

- Cyp 3A4 % inhib. at 5 μM [3]: 0 % inhib.
- inhibition at 5 µM ([3]; human, Table 4, read-out: Cyp 3A4 % Inhib): 0%
- binding by serum proteins [4]: highly bound by serum proteins
- Mouse PB % bound [4, 15]: 100 % bound
- fraction unbound ([4]; mouse serum, equilibrium dialysis, Table 4, read-out: PPB, percent protein bound): 0.001
- solubility ([5]; water, kinetic from dmso stock, H2O, Table 4, read-out: Sol., solubility limit in H2O): 25 µM (≈ 10.8 µg/mL)
- MLMS (% cons) ([6]; % consumed after 30 min., Table 4): 17 % cons
- MLMS % consumed [6]: 17 % consumed
- Papp A→B [7]: < 0.5 ×10⁻⁶ cm/s
- MSS (% cons) ([10]; % consumed after 60 minutes, Table 4): 0 % cons
- MSS % consumed [10]: 0 % consumed
Compound: Cc1ccc(C)c(N2CCN(S(=O)(=O)c3ccc(-c4ccc(=O)[nH]n4)s3)CC2)c1 [ISG-21, reference compound]
- SI CC50/PSAC K0.5 ([1]; HeLa CC50 / PSAC K0.5): 28,700
- CC50 at 72 h ([2]; Table 3, read-out: CC50, cytotoxicity against HeLa cells): 86000 nM
- selectivity ratio at 72 h ([2]; HeLa CC50 divided by growth inhibition IC50): 37000
- IC50 ([8]; Plasmodium falciparum, Pf growth inhibition in PGIM, 72 hr, read-out: IC50 PGIM): 2 nM
- IC50 ([8]; Plasmodium falciparum, Table 3, read-out: IC50, Pf growth inhibition in PGIM): 2 nM
- K0.5, activity in the PSAC assay ([9]; Table 3): 0.003 µM
- PSAC K0.5 [9]: 0.003 µM

Compound: N#Cc1cccnc1N1CCN(S(=O)(=O)c2ccc(-c3ccc(=O)[nH]n3)s2)CC1 [MBX-2997, 2-(4-((5-(6-oxo-1,6-dihydropyridazin-3-yl)thiophen-2-yl)sulfonyl)piperazin-1-yl)nicotinonitrile]
- SI CC50/PSAC K0.5 ([1]; HeLa CC50 / PSAC K0.5): >28,500
- CC50 at 72 h ([2]; Table 6, read-out: HeLa CC50): > 200000 nM
- solubility ([5]; water, kinetic from dmso stock, solubility limit in H2O, read-out: Solubility): 25 µM (≈ 10.7 µg/mL)
- IC50 ([8]; Plasmodium falciparum, 72 h, read-out: IC50 PGIM): 38 nM
- PSAC K0.5 [9]: 0.007 µM

Compound: Cc1nccnc1N1CCN(S(=O)(=O)c2ccc(-c3ccc(=O)[nH]n3)s2)CC1 [MBX-4055]
- CC50 ([1]; 3 days, Table 6, read-out: HeLa CC50): > 200000 nM
- SI CC50/PSAC K0.5 ([1]; HeLa CC50 / PSAC K0.5): >9,524
- Cyp 3A4 % inhib. at 5 μM [3]: 0 % inhib.
- % F (oral bioavailability) [11]: 66%
- half-lives (FIG. 1, clearance rates) [11]: favorable half-lives
- AUClast ([11]; iv, 10 mg/kg): 34,275 hr*ng/mL
- Clearance ([11]; iv, 10 mg/kg): 6.53 mL/min/kg
- Half-life ([11]; iv, 10 mg/kg): 1.39 h
- Mean residence time ([11]; iv, 10 mg/kg): 1.35 h
- VD ([11]; iv, 10 mg/kg): 0.786 L/kg
- increase in normalized exposure relative to MBX 3318 ([11]; po): > 30 fold
- AUClast ([11]; po, 30 mg/kg): 67,501 hr*ng/mL
- Cmax ([11]; po, 30 mg/kg): 11,733 ng/mL
- Half-life ([11]; po, 30 mg/kg): 2.27 h
- Normalized AUC ([11]; po, 30 mg/kg): 22,500
- Tmax ([11]; po, 30 mg/kg): 1 h
- reduction of parasite growth with respect to control mice ([12]; humanized NSG mouse, 50 mg/kg once daily for 4 days, PO): over 90%
- blood levels of compound compared with IC50 in vitro ([12]; infected NSG mice treated with MBX 4055 PO, FIG. 3B): well above the IC50 in vitro
- Mouse PB % bound [4, 15]: 94 % bound
- solubility ([5]; solubility limit in H2O, read-out: Solubility): 25 µM (≈ 10.5 µg/mL)
- MLMS % consumed [6]: 47 % consumed
- Caco-2 Papp [13]: 7.8 ×10⁻⁶ cm/s
- signs of toxicity, PO dosing [14]: some slight lethargy
- IC50 ([8]; Pf growth inhibition in PGIM, 72 hr, read-out: IC50 PGIM): 42 nM
- PSAC K0.5 [9]: 0.021 µM
- MSS % consumed [10]: 5 % consumed

Compound: N#Cc1ccncc1N1CCN(C(=O)c2ccc(C(=O)N3CCCC3)s2)CC1 [MBX-4075]
- CC50 [1]: > 200000 nM
- SI CC50/PSAC K0.5 [1]: >185
- PSAC K0.5 [9]: 1.08 µM
